Key:
BACE1 [1] = target: T1, BACE1 (Homo sapiens (Human), UniProt P56817); assay: Measurement of Aβ production inhibition in cell (SK-N-BE(2) neuroblastoma cells, Aβ40 ELISA); conditions: SK-N-BE(2) cells, 6 hours
Target sequence in this assay (P56817 46-501): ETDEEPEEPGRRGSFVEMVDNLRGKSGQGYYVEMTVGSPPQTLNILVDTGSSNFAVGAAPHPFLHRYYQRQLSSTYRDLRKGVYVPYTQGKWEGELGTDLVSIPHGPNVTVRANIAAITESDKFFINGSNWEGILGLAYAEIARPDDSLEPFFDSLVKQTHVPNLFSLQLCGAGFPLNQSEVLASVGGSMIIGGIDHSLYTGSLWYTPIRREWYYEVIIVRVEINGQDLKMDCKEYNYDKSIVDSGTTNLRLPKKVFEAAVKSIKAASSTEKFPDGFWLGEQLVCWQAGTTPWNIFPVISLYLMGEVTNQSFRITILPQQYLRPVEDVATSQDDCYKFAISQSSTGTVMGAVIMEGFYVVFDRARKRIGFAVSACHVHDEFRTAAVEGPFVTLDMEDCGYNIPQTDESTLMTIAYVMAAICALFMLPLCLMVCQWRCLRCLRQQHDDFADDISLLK
Procedure: The potency of compounds against BACE1 activity was determined in a cellular assay of Aβ production. […] Test compounds were dissolved in dimethyl sulfoxide and diluted with dimethyl sulfoxide and put into RPMI1640/5% FBS/penicillin-streptomycin media (final dimethyl sulfoxide concentration is 0.5%). […] CellTiter-Glo Substrate was dissolved into CellTiter-Glo Buffer and added to the plates in 95 μL/well. After shaking the plates for 2 minutes, the whole sample was transferred into a white 96-well plate and luminescence was measured for ATP quantification as the cell viability. Aβ concentration measured by ELISA was normalized by the viability of the corresponding cells.

BACE1 [2] = target: T1, BACE1; assay: Measurement of BACE1 inhibition by fluorescence resonance energy transfer (FRET), MCA substrate; conditions: FRET; for IC50: read-out: Test Example 1 IC50, MCA-SEVNLDAEFK(DNP)-NH2 substrate, pH 4.4; for Ki: read-out: Test Example 1 BACE1 MCA Ki, MCA substrate
Target sequence in this assay (P56817 75-416): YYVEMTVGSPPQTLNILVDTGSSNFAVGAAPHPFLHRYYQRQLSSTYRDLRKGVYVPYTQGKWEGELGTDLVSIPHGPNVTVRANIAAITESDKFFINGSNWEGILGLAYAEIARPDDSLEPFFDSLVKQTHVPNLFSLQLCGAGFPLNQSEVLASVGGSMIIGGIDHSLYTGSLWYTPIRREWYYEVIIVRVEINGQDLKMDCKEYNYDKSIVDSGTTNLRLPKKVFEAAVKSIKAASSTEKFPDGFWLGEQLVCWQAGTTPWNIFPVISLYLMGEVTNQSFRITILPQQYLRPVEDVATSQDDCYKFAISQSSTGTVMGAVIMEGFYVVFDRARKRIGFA

[3] = Test Example 3 IC50, Aβ40 production

SMILES	IC50 (BACE1 [1]; [3]) [nM]	IC50 (BACE1 [2]) [nM]	Ki (BACE1 [2]) [nM]	IC50 (BACE1 [1]; read-out: Test Example 3 IC50, Aβ40 production) [nM]
COc1cccc(-c2ccc3c(c2)C2(COC(N)=N2)C2(COC2)C2(CCC2)O3)c1 (stereo not shown) [RP 126]	1200	696		
CCOc1cccc(-c2ccc3c(c2)C2(COC(N)=N2)C2(COC2)C(C)(C)O3)c1 (stereo not shown) [RP 144]	460	879		
CC1(C)Oc2ccc(-c3cc(F)cc(F)c3)cc2C2(COC(N)=N2)C12COC2 (stereo not shown) [RP 147]	170	621		
CCOc1cc(F)cc(-c2ccc3c(c2)C2(COC(N)=N2)C2(COC2)C2(CCC2)O3)c1 (stereo not shown) [RP 133]	2800	1670		
COc1cccc(-c2ccc3c(c2)C2(COC(N)=N2)C2(COC2)C2(CCC2)O3)c1F (stereo not shown) [RP 137]	830	773		
CC(C)CC1Oc2ccc(-c3cncnc3)cc2C2(COC(N)=N2)C12COC2 (stereo not shown) [RP 93]	370	629		
CC1(C)Oc2ccc(-c3cncnc3)cc2C2(COC(N)=N2)C12COC2 (single isomer, unassigned) [RP 51b, 2′,2′-dimethyl-6′-(pyrimidin-5-yl)dispiro[1,3-oxazole-4,4′-chromene-3′,3″-oxetan]-2-amine]	72	172	137	
COc1cc(-c2ccc3c(c2)C2(COC(N)=N2)C2(COC2)C2(CCC2)O3)c(F)cn1 (stereo not shown) [RP 122]	1100	2740		
Cc1cc(-c2ccc3c(c2)C2(COC(N)=N2)C2(COC2)C(C)(C)O3)cnc1F (stereo not shown) [RP 157]	660	2800		
NC1=NC2(CO1)c1cc(-c3cc(F)ccc3F)ccc1OC1(CCC1)C21COC1 (stereo not shown) [RP 130]	1700	1870		
NC1=NC2(CO1)c1cc(NC(=O)c3ccc(F)cn3)ccc1OCC21CC1 (stereo not shown) [RP 31, N-(2″-aminodispiro[cyclopropane-1,3′-chromene-4′,4″-[1,3]oxazol]-6′-yl)-5-fluoropyridine-2-carboxamide]	61	1060	1030	
CC1(C)Oc2ccc(-c3cncnc3)cc2C2(COC(N)=N2)C12COC2 (stereo not shown) [RP 69]	40	397		
NC1=NC2(CO1)c1cc(-c3cccc(F)c3F)ccc1OC1(CCC1)C21COC1 (stereo not shown) [RP 138]	1500	1670		
CC1(C)Oc2ccc(-c3cccc(Cl)c3)cc2C2(COC(N)=N2)C12COC2 (stereo not shown) [RP 139]	140	252	215	
CC1(C)Oc2ccc(-c3cccnc3Cl)cc2C2(COC(N)=N2)C12COC2 (stereo not shown) [RP 156]	180	2610		
NC1=NC2(CO1)c1cc(-c3cccnc3F)ccc1OCC21CC1 (stereo not shown) [RP 103]	450	2190		
NC1=NC2(CO1)c1cc(-c3cccc(F)c3)ccc1OC1(CCC1)C21COC1 (stereo not shown) [RP 125]	580	2310		
CC1(C)Oc2ccc(-c3cc(F)cnc3Cl)cc2C2(COC(N)=N2)C12COC2 (stereo not shown) [RP 153]	130	1130		
N#C/C=C/c1cccc(-c2ccc3c(c2)C2(COC(N)=N2)C2(COC2)C2(CCC2)O3)c1 (stereo not shown) [RP 132]	1200	2450		
COc1ccc(F)c(-c2ccc3c(c2)C2(COC(N)=N2)C2(COC2)C2(CCC2)O3)c1 (stereo not shown) [RP 136, 6′-(2-fluoro-5-methoxyphenyl)trispiro[cyclobutane-1,2′-chromene-4′,4″-[1,3]oxazole-3′,3′″-oxetan]-2″-amine]	660	635		
COc1cncc(-c2ccc3c(c2)C2(COC(N)=N2)C2(COC2)C2(CCC2)O3)c1 (stereo not shown) [RP 72]	68	817		
NC1=NC2(CO1)c1cc(-c3cncnc3)ccc1OCC21COC1 (stereo not shown) [RP 36]	810	2900		
CC1(C)Oc2ccc(-c3cc(F)ncc3Cl)cc2C2(COC(N)=N2)C12COC2 (stereo not shown) [RP 158]	370	930		
CC1(C)Oc2ccc(-c3cccnc3F)cc2C2(COC(N)=N2)C12COC2 (stereo not shown) [RP 82]	36	348		
CC1(C)Oc2ccc(-c3cccc(C(F)(F)F)c3)cc2C2(COC(N)=N2)C12COC2 (stereo not shown) [RP 141]	1300	903		
CC#Cc1cncc(-c2ccc3c(c2)C2(COC(N)=N2)C2(CCC2)CO3)c1 (stereo not shown) [RP 113]	470	1110		

SMILES	IC50 (BACE1 [1]; [3]) [nM]	IC50 (BACE1 [2]) [nM]	Ki (BACE1 [2]) [nM]	IC50 (BACE1 [1]; read-out: Test Example 3 IC50, Aβ40 production) [nM]
COc1cccc(-c2ccc3c(c2)C2(COC(N)=N2)C2(COC2)C(C)(C)O3)c1 (stereo not shown) [RP 142]	150	401		
NC1=NC2(CO1)c1cc(-c3cncc(Cl)c3)ccc1OCC21CC1 (stereo not shown) [RP 107]	460	1060		
NC1=NC2(CO1)c1cc(-c3cncc(OCC(F)(F)C(F)F)c3)ccc1OCC21CC1 (stereo not shown) [RP 64]	2300	6120		
COc1cnc(C(=O)Nc2ccc3c(c2)C2(COC(N)=N2)C2(CC2)CO3)cn1 (stereo not shown) [RP 193]	81	1040		
CC1(C)Oc2ccc(-c3cc(F)cc(Cl)c3)cc2C2(COC(N)=N2)C12COC2 (stereo not shown) [RP 146, 6′-(3-chloro-5-fluorophenyl)-2′,2′-dimethyldispiro[1,3-oxazole-4,4′-chromene-3′,3″-oxetan]-2-amine]	210	226	188	
CC1(C)Oc2ccc(-c3cc(Cl)cnc3Cl)cc2C2(COC(N)=N2)C12COC2 (stereo not shown) [RP 152]	110	688		
NC1=NC2(CO1)c1cc(NC(=O)c3ncc(Br)cn3)ccc1OCC21CC1 (stereo not shown) [RP 189]	43	661	623	
CC#Cc1cncc(-c2cc3c(cc2F)OCC2(CC2)C32COC(N)=N2)c1 (stereo not shown) [RP 112]	660	400		
Cc1cccc(-c2ccc3c(c2)C2(COC(N)=N2)C2(COC2)C2(CCC2)O3)c1 (stereo not shown) [RP 127]	1800	2270		
NC1=NC2(CO1)c1cc(-c3cncnc3)ccc1OCC21CCCO1 (stereo not shown) [RP 97]	2600	20200		
CCC1Oc2ccc(-c3cncnc3)cc2C2(COC(N)=N2)C12COC2 (stereo not shown) [RP 87]	430	1550		
Cc1cnc(Cl)c(-c2ccc3c(c2)C2(COC(N)=N2)C2(COC2)C(C)(C)O3)c1 (stereo not shown) [RP 151]	280	1360		
CC1(C)Oc2ccc(NC(=O)c3ncc(Cl)cc3F)cc2C2(COC(N)=N2)C12COC2 (stereo not shown) [Example 30]			51.5	2.3
NC1=NC2(c3cc(-c4cncnc4)ccc3OCC23CC3)C(F)(F)CO1 (stereo not shown) [RP 206]	> 30000	4910		
NC1=NC2(CS1)c1cc(Br)ccc1OCC21COC1 (stereo not shown) [RP 41, 6′-bromodispiro[oxetane-3,3′-chromene-4′,4″-[1,3]thiazol]-2″-amine]	> 30000	24800		
NC1=NC2(CO1)c1cc(-c3cncc(C#CC4CC4)c3)ccc1OC1(CCC1)C21COC1 (stereo not shown) [RP 48, 6′-[5-(cyclopropylethynyl)pyridin-3-yl]trispiro[cyclobutane-1,2′ chromene-4′,4″-[1,3]oxazole-3′,3′″-oxetan]-2″-amine]	690	1130		
N#Cc1cncc(-c2ccc3c(c2)C2(COC(N)=N2)C2(COC2)C2(CCC2)O3)c1 (stereo not shown) [RP 120]	2300	1890		
NC1=NC2(CO1)c1cc(C3=CCCCC3)ccc1OC1(CCC1)C21COC1 (stereo not shown) [RP 135]	1800	3270		
CC1(C)Oc2ccc(-c3cccc(C4CC4)c3)cc2C2(COC(N)=N2)C12COC2 (stereo not shown) [RP 140]	410	389		
CCC(CC)Cc1ccc2c(c1)C1(COC(N)=N1)C1(COC1)C1(CCC1)O2 (stereo not shown) [RP 47]	1400	2330		
COCC#Cc1cncc(-c2ccc3c(c2)C2(COC(N)=N2)C2(COC2)CO3)c1 (stereo not shown) [RP 19, 6′-[5-(3-methoxyprop-1-yn-1-yl)pyridin-3-yl]dispiro[1,3-oxazole-4,4′-chromene-3′,3″-oxetan]-2-amine]	430	2310		
N#Cc1ccc(C(=O)Nc2ccc3c(c2)C2(COC(N)=N2)C2(CC2)CO3)nc1 (stereo not shown) [RP 196]	53	380	342	
CCOc1cccc(-c2ccc3c(c2)C2(COC(N)=N2)C2(COC2)C2(CCC2)O3)c1 (stereo not shown) [RP 131]	3200	2020		
CC#Cc1cncc(-c2ccc3c(c2)C2(COC(N)=N2)C2(COC2)C(CC2CC2)O3)c1 (stereo not shown) [RP 205]	22	126	82.5	
CCCC1Oc2ccc(-c3cncnc3)cc2C2(COC(N)=N2)C12COC2 (stereo not shown) [RP 94]	380	862		

— US8975415B2, “Chromane compounds” (CoMentis, Inc., priority 2012, dated 2015)
